From PubChem BioAssay AID624491 (Broad Institute, 2012) come the findings set out here.

This assay deals with D54 ERlucT glycosylation luciferase reporter, luminescence, 24 h. In words: blockers of NLG process in reporter cells – D54 ERlucT cells, luminescence, cherry-picks, dose response (AID 624491).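 Also: signal gain reflects blocked N-linked glycosylation of a luciferase reporter; actives raise luciferase signal so AC26 marks activators of the reporter.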

SMILES strings stand for the structures.

In the case of `O=C1CC(c2ccccc2F)c2cc3c(cc2N1)CCC3` (stereo not given), the AC26 was 938 nM.
For the compound `CCn1c(=S)[nH]c2cc(S(=O)(=O)N3CCCCC3)ccc21`, the AC26 was 1090 nM.
As to `COc1ccc(CNCC(=O)Nc2ccccc2-n2cccc2)cc1`, the AC26 is 922 nM.
With `CN(C)CCNC(=O)c1cccc2[nH]c(-c3ccncc3)nc12` the figure was 894 nM.
With `CC(=O)Nc1cccc(-c2ccnc3c2CC(C)(C(=O)NCc2cccs2)O3)c1` (stereo not given), the AC26 is 1450 nM.
Next, `COc1ccc(/C=C2\SC(=O)N(CCNC(=O)C3=COCCO3)C2=O)cc1`: 658 nM; `Cn1c(=O)n(C)c2cc(NS(=O)(=O)c3ccc(F)cc3)ccc21`: 5290 nM; `Cc1ccc(C(=O)Nc2ccccc2C(=O)N2CC(C)OC(C)C2)cc1` (stereo not given): 1330 nM.
With `CC(/C=N/NC(=O)c1cc(-c2ccccc2)nc2ccccc12)=C\c1ccco1` the figure was 2040 nM; with `NC(=O)CC(NC(=O)Cc1ccc(Br)cc1)c1ccc(NC2CCC2)c([N+](=O)[O-])c1` (stereo not given), 2760 nM; with `COc1ccc(C(C)(O)c2nc(-c3ccc(F)cc3OC)cs2)cc1` (stereo not given), 5930 nM.
Next, `COc1cccc(Oc2ccc(C(F)(F)F)cc2NC(=O)CN2C(=O)NC3(CCCC3)C2=O)c1`: 4850 nM.
As to `O=c1cc(-c2ccccc2)[nH]c2ccccc12`, the AC26 is 433 nM.
Next, `N=c1c(S(=O)(=O)c2ccc(Cl)cc2)cc2c(=O)n3ccccc3nc2n1CCc1ccccc1`: 122 nM; `Cc1ccc(-c2nn3c(C)nnc3c3ccccc23)cc1S(=O)(=O)NC(C)(C)CO`: 826 nM; `COc1ccc(CNC(=O)C/C(C)=N/NC(=O)COc2ccc(C)cc2Br)cc1`: 5660 nM.
For `COc1ccc(CC(=O)N(Cc2ccccc2)c2ccc(C)cc2)cc1OC`, the AC26 is 716 nM.
Take `Cc1cc2[nH]c3ccccc3c2c(C)n1`: the AC26 is 3670 nM.
As to `O=C(Nc1ccc(Cl)cn1)c1cccc(F)c1`, the AC26 is 6980 nM.
Next, `Cc1cc2nnc(SCC(=O)NCc3cccs3)n2c2ccccc12`: 1660 nM.
Take `CCCCC[C@H](O)/C=C/[C@@H]1[C@@H](C/C=C\CCCC(=O)OC)[C@@H](O)C[C@H]1O`: the AC26 is 10.5 nM.
With `Cc1ccc(-c2cnc(C3CC3)o2)cc1S(=O)(=O)Nc1ccccc1` the figure was 9070 nM.
Regarding `CN(C)CCNC(=O)c1cccc2nc3c(ccc4ccccc43)nc12`, the AC26 is 719 nM.
Next, `CC1(C(=O)NCc2ccccc2)Cc2c(-c3cccc(C(N)=O)c3)ccnc2O1` (stereo not given): 2100 nM.
With `CCOC(=O)c1c(NC(=O)c2cc3n(n2)C(C(F)(F)F)CC(c2cccs2)N3)sc(C)c1C` (stereo not given) the figure was 5140 nM.
Take `Cc1nc2c3cc(Cl)ccc3n(CCN3CCCCC3)c2s1`: the AC26 was 896 nM.
Regarding `Cc1ccc(NC(=O)c2ccc(Cl)cc2[N+](=O)[O-])nc1`, the AC26 is 1080 nM.
For the compound `CCOc1nc(N=C(N)N)nc2c(C)cccc12`, the AC26 is 2480 nM.
For `COC(=O)c1ccc(C(=O)NC2CCCc3c2cnn3-c2ccccc2F)nc1` (stereo not given), the AC26 was 4140 nM.
As to `CC1CN(C(=O)c2ccc(COc3ccc(C(C)C)cc3)o2)CC(C)O1` (stereo not given), the AC26 is 3780 nM.
Next, `Cn1c(=O)cc(OCCCC(=O)NC2CCCC2)c2ccccc21`: 2400 nM.
For `Cc1ccc2cc(CN(CCCN(C)C)C(=O)NCc3ccccc3)c(=O)[nH]c2c1C`, the AC26 was 69.1 nM.
On to `O=C(C=Cc1ccccc1F)c1ccccc1`, for which the AC26 was 3230 nM.
With `Cc1ccccc1NS(=O)(=O)c1ccc2c3c(cccc13)C(=O)N2C` the figure was 3400 nM; with `COc1ccc(S(=O)(=O)NCc2ccccn2)cc1NC(=O)c1ccccc1`, 234 nM.
As to `CCC(C)Nc1nc2ccccc2n2c(C)nnc12` (stereo not given), the AC26 is 1500 nM.
Next, `FC(F)(F)c1cccc(Sc2nc(-c3ccccc3)nnc2C(F)(F)F)c1`: 2340 nM.
Next, `COc1ccc2c(c1)[C@H]1[C@H](CO2)[C@H](c2ccccc2)[C@]2(C)C(=O)Nc3ccc(Cl)cc3C(=O)N12`: 426 nM; `CCOC(=O)C(C)Oc1cccc2c(=O)n(CC(=O)NCc3ccco3)ccc12` (stereo not given): 1380 nM.
`CN1CCN(C(=O)/C=C/c2ccc([N+](=O)[O-])o2)CC1`: the AC26 is 3930 nM.
Next, `CCOC(=O)c1sc(Nc2nc(C)cc(C)n2)nc1C`: 949 nM.
With `O=C(CSc1c2c(nc3ccc(Cl)cc13)CCCC2)N1CCN(C(=O)c2ccco2)CC1` the figure was 7690 nM; with `COc1cccc(N2CCN(C(=O)c3ccc(CS(=O)c4ccc(Cl)cc4)o3)CC2)c1` (stereo not given), 234 nM; with `Cc1ccc(C(=O)Nc2cc(S(=O)(=O)N3CCOCC3)ccc2N2CCCC2)cc1`, 1310 nM.
Next, `CC(C)(C)c1ccc(OCC(=O)Nc2ccncc2)c(Br)c1`: 4130 nM; `COc1ccc2c(-c3cc4ccc(OCc5ccc(F)cc5)cc4oc3=O)cc(=O)oc2c1`: 4410 nM; `COC(=O)Nc1nc2ccc(-c3n[nH]c(=O)c4ccccc34)cc2[nH]1`: 3350 nM.
For `COc1cc(/C=C/C(=O)OCC(=O)NCc2ccc(F)cc2)ccc1O`, the AC26 is 1590 nM.
In the case of `Cc1noc(C)c1COc1ccc(C(=O)NNC(=O)c2ccccc2F)cc1`, the AC26 is 33.4 nM.
For the compound `CC(=O)c1c(C)[nH]c(C(=O)Nc2nccs2)c1C`, the AC26 was 2200 nM.
As to `COC(=O)/C=C1\C(=O)N(c2nc3ccccc3s2)C(=S)N1c1ccc(F)cc1`, the AC26 was 2300 nM.
Next, `COc1cc(NC(C(=O)Nc2cccc(C(C)=O)c2)c2ccccc2)cc(OC)c1OC` (stereo not given): 890 nM.
Consider `Cn1nc(-c2ccc(N3CCOCC3)c(NS(=O)(=O)c3ccccc3)c2)c2ccccc2c1=O`, for which the AC26 is 6110 nM.
For `CCOc1cc(-c2c(C#N)c(N)nc3c2CCc2ccccc2-3)ccc1O`, the AC26 is 9010 nM.
For `COc1cc2c(cc1OC)C(c1cccs1)N(C(=O)c1cccc(S(=O)(=O)N(C)C)c1)CC2` (stereo not given), the AC26 is 1320 nM.
For the compound `COc1ccc(/C=C/C(=O)c2ccc3c(c2)OCCO3)cc1[N+](=O)[O-]`, the AC26 was 5050 nM.
With `Cc1nc(SCC(=O)Nc2ccc(F)cc2)c(C#N)c(C)c1CC(=O)c1ccc(Br)cc1`, the AC26 is 1660 nM.
For the compound `Cc1cc(C)nc(/N=C(\N)Nc2ccc(OCCC(C)C)cc2)n1`, the AC26 was 776 nM.
Consider `O=C(/C=C/c1cn(-c2ccccc2)nc1-c1cccnc1)c1ccco1`, for which the AC26 is 628 nM.
Regarding `CCOC(=O)c1cc2[nH]c3ccccc3c2[n+](-c2ccc([N+](=O)[O-])cc2)c1N`, the AC26 is 1930 nM.
In the case of `O=C(N/N=C\C=C\c1ccc([N+](=O)[O-])o1)c1cccs1`, the AC26 is 7850 nM.
Next, `COC1C(O)C(C)OC(OC2C(Oc3cccc4c(O)c5c(=O)oc6ccc(C)c7c(=O)oc(c34)c5c67)OC(C)C(O)C2O)C1O` (stereo not given): 1000 nM; `COc1ccc(OC)c(N(CC(=O)Nc2cccc3ccccc23)S(C)(=O)=O)c1`: 3100 nM; `CC(C)Sc1ccccc1C(=O)Nc1ccc2c(c1)n(C)c(=O)n2C`: 4830 nM.
In the case of `Cn1c(=O)[nH]c(=O)c2c1nc(SCC(N)=O)n2Cc1cccc(Br)c1`, the AC26 was 660 nM.
With `CCN(CC)CCCNc1nc2ccccc2c2nc(-c3ccncc3)nn12` the figure was 2320 nM; with `COc1ccc(-c2cc(-c3ccc(O)cc3)nc(N)c2C#N)cc1OC`, 4050 nM; with `NC(=O)CC(NC(=O)Cc1ccc(Cl)cc1)c1ccc(NC2CCN(Cc3ccccc3)CC2)c([N+](=O)[O-])c1` (stereo not given), 480 nM.
Next, `O=C(c1[nH]c(C(F)(F)F)nc1-c1ccccc1)N1CCN(c2cccc(C(F)(F)F)n2)CC1`: 9230 nM; `O=C(N/N=C\c1ccc(CNS(=O)(=O)c2ccc(Cl)cc2)o1)C(=O)Nc1ccc(Oc2ccccc2)cc1`: 4890 nM; `O=C1NC(=O)C(=Cc2c(Cl)cccc2Cl)C(=O)N1`: 2240 nM.
As to `COc1ccc(Cl)cc1NC(=O)CN(C)CC(=O)Nc1cc(OC)c(OC)c(OC)c1`, the AC26 is 10200 nM.
With `Cc1nc(-c2ccccc2)sc1-c1nc(-c2ccncc2)ncc1S(=O)(=O)c1ccccc1`, the AC26 is 956 nM.
On to `COc1cccc(N2[C@@H](CC(C)=O)c3ccc(/C=C/C(C)=O)cc3S2(=O)=O)c1`, for which the AC26 was 3280 nM.
For the compound `COc1ccc(NC(=O)c2cccc3c(-c4ccc(O)c(OC)c4)coc23)cc1`, the AC26 was 13400 nM.
Next, `CCN(c1cccc(C)c1)S(=O)(=O)c1ccc(-c2cc(C)no2)s1`: 1270 nM; `COc1cccc(-c2nn(-c3ccccc3)cc2/C=C\C(=O)c2cccs2)c1`: 1360 nM.
Next, `COc1cc(/C=N/NC(=O)c2cc(-c3c(C)nn(-c4ccccc4)c3C)n[nH]2)ccc1O`: 1390 nM; `Cn1nc(C(=O)Nc2cccc(S(=O)(=O)N3CCCC3)c2)c2ccccc2c1=O`: 666 nM; `CCNCCNc1ccc([N+](=O)[O-])c2cccnc12`: 7750 nM.
With `CC1=Nc2cc(C(=O)NCC3CCCO3)ccc2Sc2ccc(C)cc21` (stereo not given) the figure was 662 nM; with `COc1ccc(-c2nnc(SCC(=O)Nc3ncc(C)s3)n2-c2ccccc2)cc1OC`, 1050 nM; with `CCN(CC)CCCNc1nc2cc(OC)c(OC)cc2c2nc(-c3ccccc3)nn12`, 811 nM.
On to `CCN(CC)c1ccc(NC(=O)c2cc(OC)cc(OC)c2)c(C)c1`, for which the AC26 is 932 nM.
As for `CCOc1ccc(Nc2nc(N(C)c3ccccc3)nc(N)c2[N+](=O)[O-])cc1`, the AC26 is 92.1 nM.
On to `Cc1cc2oc(C(=O)Nc3c(C)n(C)n(-c4ccccc4)c3=O)c(C)c2cc1Cl`, for which the AC26 is 781 nM.
Take `COc1cc2c(cc1OC)C(c1ccccc1)N(C(=O)c1cccc(S(C)(=O)=O)c1)CC2` (stereo not given): the AC26 was 193 nM.
With `CC(C)Oc1ccc(C(=O)/C=C2/C(=O)Nc3ccccc32)cc1` the figure was 3230 nM; with `COc1ccc(OC)c(-c2cc(-c3cccnc3)nc(N)c2C#N)c1`, 2230 nM.
Next, `Nc1ncnc(Sc2ccc(Cl)cc2)c1[N+](=O)[O-]`: 13400 nM.
Next, `COc1ccc(C(=O)/C=C/c2ccc(OC)c(O)c2)c(F)c1`: 4860 nM; `COc1cc2c(cc1OC)C(c1cccs1)N(C(=S)NC(C)C)CC2` (stereo not given): 252 nM; `COc1ccc2nc(C)cc(Nc3ccc(N4CCOCC4)cc3)c2c1`: 1260 nM.
Regarding `Cc1ccnc(NC(=O)CCCOc2cc(=O)n(C)c3ccccc23)c1`, the AC26 was 14900 nM.
Take `Cc1ccc2oc(C(=O)NCc3ncc(C)[nH]3)c(C)c2c1`: the AC26 was 6750 nM.
